Results on one molecule are retold here after patent publication US6592867B2, “Antimicrobial composition containing an oxidoreductase and an enhancer of the N-hydroxyanilide-type” (Novozymes A/S, priority 1998, dated 2003).

In experiment [1] the test system is Enterobacter aerogenes (ATCC 13048). Briefly: Bactericidal activity of laccase plus N-hydroxyacetanilide, Malthus (Example 2). In kind it is cell-based. To be noted: for Bactericidal activity (dose-response): 20 min, 40° C. As to the method:
(§1) The antimicrobial activity was determined against Pseudomonas fluorescens (Gram et al. 1990, International Journal of Food Microbiology 10: 303-316) and Staphylococcus epidermidis (DSM 20042). Cells were grown in Tryptone Soya Broth (Oxoid CM129) at 30° C. (S. epidermidis) or 25° C. (P. fluorescens) for 24 h and diluted in the MES-buffer to a final cell concentration of approximately 10^6 cfu/ml. The cell suspensions were mixed with rCiP (3 POXU/ml), enhancing agent (0.2 mM) and hydrogen peroxide (0.5 mM) for 20 min at 40° C. The bactericidal activity was determined by incubation in Malthus. Detection times measured by the Malthus instrument were converted to cfu/ml by a calibration curve. Either direct or Indirect Malthus measurements were used when enumerating total survival cells (Malthus Flexi M2060, Malthus Instrument Limited). By the direct measurements, the cell metabolism was determined by conductance measurements in the growth substrate. By the indirect measurements, 3 ml of growth medium was transferred to the outer chamber of the indirect Malthus cells, and 0.5 ml of sterile KOH (0.1 M) was transferred to the inner chamber. The cell suspensions were after enzyme treatment transferred to the outer chamber of the Malthus cell. As cells are growing in the outer chamber they produce CO2 which will dissolve in the KOH in the inner chamber and thereby change the conductance of the KOH. The amount of CO2 formed by the respiring cells surviving the enzyme treatment was used for estimating the number of viable cells. When the conductance change is measurable by the Malthus, a detection time (dt) will be recorded. The dt's were converted to colony counts by use of a calibration curve relating cfu/ml to dt (Johansen et al. 1995. Journal of Applied Bacteriology 78:297-303, Johansen et al. 1997, Applied and Environmental Microbiology 63:3724-3728). Antibacterial activity of Polyporus pinsitus laccase (rPpL), obtained as described in WO 96/00290), and Coprinus cinereus laccase (rCcL), obtained as described in WO 97/08325, was determined with N-hydroxyacetanilide as enhancing agent against Pseudomonas aeruginosa (ATCC 10145), Enterobacter aerogenes (ATCC 13048) and Enterococcus faecalis (DSM 2570). The bactericidal activity was determined as described in Example 1, the antimicrobial activity of rPpL (1 mg/L) was evaluated at pH 6, whereas rCcL (1 mg/L) was evaluated at pH 8.

For experiment [2], the system named is Enterococcus faecalis (DSM 2570). The experiment is described as above. In kind it is cell-based. The settings on record: 20 min, 40° C. As to the method: as §1

On to `CC(=O)N(O)c1ccccc1` [N-hydroxyacetanilide], for which the “Bactericidal activity (dose-response)” value in experiment [1] (rCcL 1 mg/L, pH 8) is “significant bactericidal activity”; in experiment [1] (rPpL 1 mg/L, pH 6) it was “significant bactericidal activity”; in experiment [2] (rCcL 1 mg/L, pH 8), “significant bactericidal activity”; in experiment [2] (rPpL 1 mg/L, pH 6), “significant bactericidal activity”. Moreover, in experiment [1] (rPpL 1 mg/L, pH 6, high concentration of N-hydroxyacetanilide), the “Bactericidal activity at high concentration of enhancing agent” value is recorded as “total kill”.
